Laboratory results taken from patent US20230323414A1, “ENZYME DEHYDROXYLATING HYDROXYL GROUP AT 9-POSITION OF UROLITHIN COMPOUND” (DAICEL CORPORATION, priority 2020, published 2023).

Test system: enzyme dehydroxylating the hydroxyl group at the 9-position of urolithins
Assay: Effect of cofactor on enzyme activity (DEAE fraction)
Format: biochemical, Clostridium bolteae JCM 12243 strain
Conditions: for Effect of cofactor on enzyme activity: cofactor individually added; for Relative activity: control without cofactor = 100%, DEAE fraction
Protocol: A 100 mM Gly/NaOH buffer (pH 9.5) containing 0.05 mg/mL of urolithin C, 5 mM of NADH, and 1 μM of DTT was mixed with a reaction solution for measuring the enzyme activity of each fraction corresponding to 40 mL of the medium to give a total volume of 500 μL, and the mixture was placed in a 1.5-mL tube. A gas phase in an anaerobic chamber was used as a gas phase (Vinyl Anaerobic Chamber available from Coy Labs), and the mixture was reacted at 45° C. for 13 to 18 hours. After completion of the reaction, 200 μL of N,N-dimethylacetamide containing 10% -formic acid was added and mixed. Then, the mixture was centrifuged (10,000 rpm. 4° C., 3 minutes), and the resulting supernatant was analyzed by HPLC.
Solutions were prepared to contain a cofactor in a concentration as shown in Table 2 in the reaction solution for measuring the enzyme activity described in Experimental Example 5, and urolithin A produced after the reaction was quantified. The DEAE fraction was used as the enzyme.
In addition, FAD refers to flavin adenine dinucleotide.

Structure (SMILES) | Effect of cofactor on enzyme activity | Relative activity (one cofactor at 10 mM) [%] | Relative activity (one cofactor at 0.2 mM) [%]
NC(=O)C1=CN([C@@H]2O[C@H](COP(=O)(O)OP(=O)(O)OC[C@H]3O[C@@H](n4cnc5c(N)ncnc54)[C@H](OP(=O)(O)O)[C@@H]3O)[C@@H](O)[C@H]2O)C=CC1 [No. 3, reduced nicotinamide adenine dinucleotide phosphate] | Increase in activity | 161 | –
Cc1cc2nc3c(=O)[nH]c(=O)nc-3n(C[C@H](O)[C@H](O)[C@H](O)COP(=O)(O)OP(=O)(O)OC[C@H]3O[C@@H](n4cnc5c(N)ncnc54)[C@H](O)[C@@H]3O)c2cc1C [No. 4, flavin adenine dinucleotide] | – | – | 95
Cc1cc2nc3c(=O)[nH]c(=O)nc-3n(C[C@H](O)[C@H](O)[C@H](O)COP(=O)(O)O)c2cc1C [No. 5, flavin mononucleotide] | – | – | 96
NC(=O)C1=CN([C@@H]2O[C@H](COP(=O)(O)OP(=O)(O)OC[C@H]3O[C@@H](n4cnc5c(N)ncnc54)[C@H](O)[C@@H]3O)[C@@H](O)[C@H]2O)C=CC1 [No. 2, reduced nicotinamide adenine dinucleotide] | Increase in activity | 186 | –
